Structures can show the parent of a compound that is named as a salt.

For the compound `O=C(CCN1CCN(C(=O)c2ccccc2F)CC1)c1ccc([N+](=O)[O-])cc1` (as salt: hydrochloride) [Example 54, 1-(p-Nitrophenyl)-3-(4′-o-fluorobenzoyl-1′-piperazinyl)-1-propanone dihydrochloride], the melting point (commonly the temperature, or range, at which the solid turns liquid) fell in the range of 217 to 218 °C.

With `O=C(CCN1CCN(Cc2ccccc2)CC1)c1cc2ccccc2o1` (as salt: hydrochloride) [Example 10, 1-(Benzofur-2″-yl)-3-(4′-benzyl-1′-piperazinyl)-1-propanone dihydrochloride], the melting point lay within 255 to 257 °C.

Take `Cc1c(C(=O)CCN2CCN(Cc3ccccc3)CC2)sc2ccc(Cl)cc12` (as salt: hydrochloride) [Example 82, 1-(5″-Chloro-3″-methylbenzo[b]-2″-thienyl)-3-(4′-benzyl-1′-piperazinyl)-1-propanone dihydrochloride]: the melting point is 247 °C (dec.).

Regarding `Cn1cc(C(=O)CCN2CCN(Cc3ccccc3)CC2)cn1` (as salt: hydrochloride) [Example 24, 1-(1″-Methyl-1″-H-pyrazol-4″-yl)-3-(4′-benzyl-1′-piperazinyl)-1-propanone dihydrochloride], the melting point was 221 °C (dec.).

Turning to `O=C(CCN1CCN(C(=O)c2c(F)cccc2F)CC1)c1ccc(Br)s1` (as salt: hydrochloride) [Example 62, 1-(5′″-Bromo-2′″-thienyl)-3-[4′-(2″,6″-difluorobenzoyl)-1′-piperazinyl]-1-propanone hydrochloride], the melting point was 225 to 226 °C.

Consider `O=C(CCN1CCN(C(=O)c2ccc(I)cc2)CC1)c1ccc(N2CCOCC2)cc1` (as salt: hydrochloride) [Example 68, 1-(p-N-Morpholinophenyl)-3-[4′-p-iodobenzoyl)-1′-piperazinyl]-1-propanone dihydrochloride], for which the melting point was determined as 240 °C.

With `O=C(CCN1CCN(C(=O)c2c(F)cccc2F)CC1)c1ccc([N+](=O)[O-])cc1` (as salt: hydrochloride) [Example 40, 1-(p-Nitrophenyl)-3-[4′-(2″,6″-difluorobenzoyl)-1′-piperazinyl]-1-propanone hydrochloride], the melting point is 225 to 227 °C.

For the compound `O=C(CCN1CCN(Cc2ccccc2)CC1)c1ccc2c(c1)CCCC2` (as salt: hydrochloride) [Example 20, 1-(1″,2″,3″,4″-Tetrahydronaphth-6″-yl)-3-(4′-benzyl-1′-piperazinyl)-1-propanone dihydrochloride], the melting point is 200 °C (dec.).

`O=C(CCN1CCN(Cc2ccccc2)CC1)c1ccc(Sc2ccccc2)cc1` (as salt: hydrochloride) [Example 69, 1-p-Phenylthiophenyl-3-(4′-benzyl-1′-piperazinyl)-3-propanone dihydrochlonde]: the melting point was 210 °C (dec.).

Turning to `O=C(CCN1CCN(Cc2ccccc2)CC1)c1cc(C(F)(F)F)cc(C(F)(F)F)c1` (as salt: hydrochloride) [Example 9, 1-[3″,5″-Bis-(trifluoromethyl)phenyl]-3-(4′-benzyl-1′-piperazinyl)-1-propanone dihydrochloride], the melting point turned out to be 255 °C.

`O=C(CCN1CCN(C(=O)c2ccccc2F)CC1)c1cccs1` (as salt: hydrochloride) [Example 70, 1-(2″-Thienyl)-3-[4′-(o-fluorobenzoyl)-1′-piperazinyl]-1-propanone hydrochloride] displayed a melting point of 183 to 184 °C.

Take `CS(=O)(=O)Nc1ccc(C(=O)CCN2CCN(Cc3ccccc3)CC2)cc1` (as salt: hydrochloride) [Example 26, 1-[-p-(Methanesulfonamido)phenyl]-3-(4′-benzyl-1′-piperazinyl)-1-propanone dihydrochloride]: the melting point is 202 to 205 °C.

Take `Cl.Cl.O=C1c2ccccc2SCC1CN1CCN(Cc2ccccc2)CC1` (centres unmarked): the melting point is > 250 °C (dec.).

Take `COc1ccc(C(=O)CCN2CCN(Cc3ccccc3)CC2)c2ccccc12` (as salt: hydrochloride) [Example 79, 1-(4″-Methoxy-1″-naphthalenyl)-3-(4′-benzyl-1′-piperazinyl)-1-propanone dihydrochloride]: the melting point is 230 °C (dec.).

On to `O=C(CCN1CCN(Cc2ccccc2)CC1)c1ccc2c(c1)Cc1ccccc1-2` (as salt: hydrochloride) [Example 28, 1-(Fluoren-2″-yl)-3-(4′-benzyl-1′-piperazinyl)-1-propanone dihydrochloride], for which the melting point was 225 °C (dec.).

Turning to `O=C(CCN1CCC(C(=O)c2ccc(F)cc2)CC1)c1csc([N+](=O)[O-])c1` (as salt: hydrochloride) [Example 98, 1-(2″-Nitro-4″-thienyl)-3-(4′-p-fluorobenzoyl-1′-piperidinyl)-1-propanone hydrochloride], the melting point lay within 205 to 206 °C.

In the case of `O=C(CCN1CCN(Cc2ccccc2)CC1)c1ccc(I)cc1` (as salt: hydrochloride) [Example 1, 1-(piodophenyl)-3-(4′-benzyl-1′-piperazinyl)-1-propanonedihydrochloride], the melting point is 224 °C (dec.).

Regarding `O=C(CCN1CCN(Cc2ccccc2)CC1)c1ccc(-c2ccccc2)cc1` (as salt: hydrochloride) [Example 22, 1-p-Biphenyl-3-(4′-benzyl-1′-piperazinyl)-1-propanone dihydrochloride], the melting point was 225 °C (dec.).

Compound `O=C(CCN1CCN(C(c2ccccc2)c2ccc(Cl)cc2)CC1)c1cccs1` (centres unmarked) (as salt: hydrochloride) [Example 89, 1-(2″-Thienyl)-3-[4′-(1′″-p-chlorophenyl-1′″-phenylmethyl)-1′-piperazinyl]-1-propanone dihydrochloride] gave a melting point of 189 to 201 °C.

For the compound `Cc1ccc(C(=O)CCN2CCN(Cc3ccccc3)CC2)o1` (as salt: hydrochloride) [Example 67, 1-(5″-Methyl-2″-furanyl)-3-(4′-benzyl-1′-piperazinyl)-1-propanone hydrochloride], the melting point is 213 °C (dec.).
